Assays:
ryegrass, Italian = assay: Test A pre-/postemergence herbicide test; assay type: in vivo, Lolium multiflorum
How it was run: (§1)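 Both application timings used compounds in a non-phytotoxic solvent plus surfactant. Pre-emergence: soil sprayed directly after seeding into loam/sand. Post-emergence: foliage of 2–10 cm seedlings (1–2 leaves) sprayed. Injury rated ~10 days later, 0–100.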

wheat = assay: Test A pre-/postemergence herbicide test; assay type: in vivo, Triticum aestivum; details: Postemergence
How it was run: as §1

rice = assay: Test B flooded paddy test; assay type: in vivo, Oryza sativa; details: Flood, scale of 0 to 100 where 0 is no effect and 100 is complete control
How it was run: (§2)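 Paddy-water application at a 3 cm flood, young plants having two leaves. Water level maintained; greenhouse, 13–15 days; visual 0–100 control rating.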

blackgrass = assay: Test A postemergence herbicide test; assay type: in vivo, Alopecurus myosuroides
How it was run: (§3)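 Potted in loam soil/sand blend; postemergence application at 1–2 leaf stage (2–10 cm). Greenhouse ~10 d. Visual injury vs untreated, 0–100 scale; 100 = complete control.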

kochia = assay: Test A pre-/postemergence herbicide test; assay type: in vivo, Kochia scoparia
How it was run: as §1

barnyardgrass [1] = assay: Test A pre-/postemergence herbicide test; assay type: in vivo, Echinochloa crus-galli
How it was run: as §1

ragweed = assay: Test A pre-/postemergence herbicide test; assay type: in vivo, Ambrosia elatior
How it was run: as §1

sedge, umbrella = assay: Test B flooded paddy test; assay type: in vivo, Cyperus difformis; details: Flood, scale of 0 to 100 where 0 is no effect and 100 is complete control
How it was run: as §2

galium = assay: Test A postemergence herbicide test; assay type: in vivo, Galium aparine
How it was run: as §3

pigweed = assay: Test A pre-/postemergence herbicide test; assay type: in vivo, Amaranthus retroflexus
How it was run: as §1

ducksalad = assay: Test B flooded paddy test; assay type: in vivo, Heteranthera limosa; details: Flood, scale of 0 to 100 where 0 is no effect and 100 is complete control
How it was run: as §2

barnyardgrass [2] = assay: Test B flooded paddy test; assay type: in vivo, Echinochloa crus-galli; details: Flood, scale of 0 to 100 where 0 is no effect and 100 is complete control
How it was run: as §2

giant foxtail = assay: Test A pre-/postemergence herbicide test; assay type: in vivo, Setaria faberii
How it was run: as §1

corn = assay: Test A pre-/postemergence herbicide test; assay type: in vivo, Zea mays; details: Postemergence
How it was run: as §1

[3] = Postemergence, 125 g ai/ha, visual rating on 0 to 100 scale (0 no effect, 100 complete control), approx. 10 days
[4] = Postemergence, 500 g ai/ha, 0 to 100 scale (0 no effect, 100 complete control)
[5] = Preemergence, 125 g ai/ha, 0 to 100 scale where 0 is no effect and 100 is complete control
[6] = preemergence, 500 g ai/ha, 0 to 100 scale, 0 is no effect and 100 is complete control
[7] = 500 g ai/ha, 0 to 100 scale (0 no effect, 100 complete control)
[8] = 125 g ai/ha, 0 to 100 scale, 0 is no effect, 100 is complete control
[9] = Postemergence, 125 g ai/ha, 0 to 100 scale, 0 is no effect, 100 is complete control
[10] = 125 g ai/ha, visual rating, 0 to 100 scale, 0 no effect, 100 complete control, approximately 10 days, preemergence
[11] = Postemergence, 125 g ai/ha, 0 to 100 scale, 0 no effect, 100 complete control
[12] = preemergence, 500 g ai/ha, 0 to 100 scale
[13] = 125 g ai/ha, 0 to 100 scale, 0 no effect, 100 complete control

O=C1NCC(c2ccc(Cl)c(Cl)c2)C1C(=O)Nc1ccc(F)cc1F (racemic) [Compound 272]
Plant response rating, Ryegrass, Italian (ryegrass, Italian; [3]): 0 | Plant response rating, Ryegrass, Italian (ryegrass, Italian; [4]): 0 | Plant response rating, Ryegrass, Italian (ryegrass, Italian; [5]): 0 | Plant response rating, Ryegrass, Italian (ryegrass, Italian; [6]): 0 | Plant response rating, Wheat (wheat; 125 g ai/ha, visual rating on 0 to 100 scale (0 no effect, 100 complete control), approx. 10 days): 0 | Plant response rating, Wheat (wheat; [7]): 0 | Plant response rating, Rice (rice; 500 g ai/ha): 0 | Plant response rating, Blackgrass (blackgrass; [8]): 0 | Plant response rating, Blackgrass (blackgrass; [7]): 30 | Plant response rating, Kochia (kochia; [9]): 20 | Plant response rating, Kochia (kochia; [4]): 60 | Plant response rating, Kochia (kochia; [5]): 0 | Plant response rating, Kochia (kochia; [6]): 20 | Plant response rating, Barnyardgrass (barnyardgrass [1]; [9]): 50 | Plant response rating, Barnyardgrass (barnyardgrass [1]; [4]): 80 | Plant response rating, Barnyardgrass (barnyardgrass [1]; [5]): 70 | Plant response rating, Barnyardgrass (barnyardgrass [1]; [6]): 90 | Plant response rating, Ragweed (ragweed; [3]): 40 | Plant response rating, Ragweed (ragweed; [4]): 0 | Plant response rating, Ragweed (ragweed; [5]): 0 | Plant response rating, Ragweed (ragweed; [6]): 0 | Plant response rating, Sedge, Umbrella (sedge, umbrella; 500 g ai/ha): 0 | Plant response rating, Galium (galium; [8]): 30 | Plant response rating, Galium (galium; [7]): 50 | Plant response rating, Pigweed (pigweed; [3]): 0 | Plant response rating, Pigweed (pigweed; [4]): 20 | Plant response rating, Pigweed (pigweed; [5]): 0 | Plant response rating, Pigweed (pigweed; [6]): 30 | Plant response rating, Ducksalad (ducksalad; 500 g ai/ha): 100 | Plant response rating, Barnyardgrass (barnyardgrass [2]; 500 g ai/ha): 20 | Plant response rating, Foxtail, Giant (giant foxtail; [9]): 60 | Plant response rating, Foxtail, Giant (giant foxtail; [4]): 80 | Plant response rating, Foxtail, Giant (giant foxtail; [5]): 90 | Plant response rating, Foxtail, Giant (giant foxtail; [6]): 90 | Plant response rating, Corn (corn; [8]): 0 | Plant response rating, Corn (corn; [7]): 10

O=C1NCC(c2cccc(S(F)(F)(F)(F)F)c2)C1C(=O)Nc1ccccc1C(F)(F)F (stereo not drawn) [Compound 215]
Plant response rating, Ryegrass, Italian (ryegrass, Italian; [10]): 0 | Plant response rating, Ryegrass, Italian (ryegrass, Italian; [9]): 0 | Ryegrass, Italian plant response rating (0 to 100 scale, 0 is no effect, 100 is complete control) (ryegrass, Italian; Postemergence, 500 g ai/ha): 0 | Plant response rating, Ryegrass, Italian (ryegrass, Italian; [6]): 10 | Plant response rating, Wheat (wheat; [8]): 0 | Wheat plant response rating (0 to 100 scale, 0 is no effect, 100 is complete control) (wheat; 500 g ai/ha): 0 | Plant response rating, Rice (rice; 1000 g ai/ha): 0 | Plant response rating, Blackgrass (blackgrass; [8]): 30 | Blackgrass plant response rating (0 to 100 scale, 0 is no effect, 100 is complete control) (blackgrass; 500 g ai/ha): 50 | Plant response rating, Kochia (kochia; [10]): 0 | Plant response rating, Kochia (kochia; [9]): 0 | Kochia plant response rating (0 to 100 scale, 0 is no effect, 100 is complete control) (kochia; Postemergence, 500 g ai/ha): 0 | Plant response rating, Kochia (kochia; [6]): 0 | Plant response rating, Barnyardgrass (barnyardgrass [1]; [10]): 60 | Plant response rating, Barnyardgrass (barnyardgrass [1]; [9]): 50 | Barnyardgrass plant response rating (0 to 100 scale, 0 is no effect, 100 is complete control) (barnyardgrass [1]; Postemergence, 500 g ai/ha): 60 | Plant response rating, Barnyardgrass (barnyardgrass [1]; [6]): 80 | Plant response rating, Ragweed (ragweed; [10]): 0 | Plant response rating, Ragweed (ragweed; [9]): 0 | Ragweed plant response rating (0 to 100 scale, 0 is no effect, 100 is complete control) (ragweed; Postemergence, 500 g ai/ha): 10 | Plant response rating, Ragweed (ragweed; [6]): 0 | Plant response rating, Sedge, Umbrella (sedge, umbrella; 1000 g ai/ha): 0 | Plant response rating, Galium (galium; [8]): 40 | Galium plant response rating (0 to 100 scale, 0 is no effect, 100 is complete control) (galium; 500 g ai/ha): 60 | Plant response rating, Pigweed (pigweed; [10]): 0 | Plant response rating, Pigweed (pigweed; [9]): 50 | Pigweed plant response rating (0 to 100 scale, 0 is no effect, 100 is complete control) (pigweed; Postemergence, 500 g ai/ha): 60 | Plant response rating, Pigweed (pigweed; [6]): 50 | Plant response rating, Ducksalad (ducksalad; 1000 g ai/ha): 80 | Plant response rating, Barnyardgrass (barnyardgrass [2]; 1000 g ai/ha): 60 | Plant response rating, Foxtail, Giant (giant foxtail; [10]): 80 | Plant response rating, Foxtail, Giant (giant foxtail; [9]): 80 | Foxtail, Giant plant response rating (0 to 100 scale, 0 is no effect, 100 is complete control) (giant foxtail; Postemergence, 500 g ai/ha): 80 | Plant response rating, Foxtail, Giant (giant foxtail; [6]): 90 | Plant response rating, Corn (corn; [8]): 0 | Corn plant response rating (0 to 100 scale, 0 is no effect, 100 is complete control) (corn; 500 g ai/ha): 0

Cc1cc(C2CNC(=O)C2C(=O)Nc2cccc(F)c2F)ccc1F (racemic) [Compound 141]
Plant response rating, Ryegrass, Italian (ryegrass, Italian; [10]): 0 | Plant response rating, Ryegrass, Italian (ryegrass, Italian; [11]): 0 | Ryegrass, Italian plant response rating (0 to 100 scale, 0 is no effect, 100 is complete control) (ryegrass, Italian; Postemergence, 500 g ai/ha): 40 | Plant response rating, Ryegrass, Italian (ryegrass, Italian; [12]): 20 | Plant response rating, Wheat (wheat; [13]): 0 | Wheat plant response rating (0 to 100 scale, 0 is no effect, 100 is complete control) (wheat; 500 g ai/ha): 30 | Plant response rating, Rice (rice; 500 g ai/ha): 0 | Plant response rating, Blackgrass (blackgrass; [13]): 0 | Blackgrass plant response rating (0 to 100 scale, 0 is no effect, 100 is complete control) (blackgrass; 500 g ai/ha): 50 | Plant response rating, Kochia (kochia; [10]): 0 | Plant response rating, Kochia (kochia; [11]): 0 | Kochia plant response rating (0 to 100 scale, 0 is no effect, 100 is complete control) (kochia; Postemergence, 500 g ai/ha): 20 | Plant response rating, Kochia (kochia; [12]): 20 | Plant response rating, Barnyardgrass (barnyardgrass [1]; [10]): 90 | Plant response rating, Barnyardgrass (barnyardgrass [1]; [11]): 80 | Barnyardgrass plant response rating (0 to 100 scale, 0 is no effect, 100 is complete control) (barnyardgrass [1]; Postemergence, 500 g ai/ha): 90 | Plant response rating, Barnyardgrass (barnyardgrass [1]; preemergence, 500 g ai/ha, 0 to 100 scale (0 no effect, 100 complete control)): 90 | Plant response rating, Ragweed (ragweed; [10]): 0 | Plant response rating, Ragweed (ragweed; [11]): 0 | Ragweed plant response rating (0 to 100 scale, 0 is no effect, 100 is complete control) (ragweed; Postemergence, 500 g ai/ha): 40 | Plant response rating, Ragweed (ragweed; [12]): 0 | Plant response rating, Sedge, Umbrella (sedge, umbrella; 500 g ai/ha): 0 | Plant response rating, Galium (galium; [13]): 20 | Galium plant response rating (0 to 100 scale, 0 is no effect, 100 is complete control) (galium; 500 g ai/ha): 50 | Plant response rating, Pigweed (pigweed; [10]): 0 | Plant response rating, Pigweed (pigweed; [11]): 0 | Pigweed plant response rating (0 to 100 scale, 0 is no effect, 100 is complete control) (pigweed; Postemergence, 500 g ai/ha): 0 | Plant response rating, Pigweed (pigweed; [12]): 0 | Plant response rating, Ducksalad (ducksalad; 500 g ai/ha): 100 | Plant response rating, Barnyardgrass (barnyardgrass [2]; 500 g ai/ha): 50 | Plant response rating, Foxtail, Giant (giant foxtail; [10]): 50 | Plant response rating, Foxtail, Giant (giant foxtail; [11]): 0 | Foxtail, Giant plant response rating (0 to 100 scale, 0 is no effect, 100 is complete control) (giant foxtail; Postemergence, 500 g ai/ha): 50 | Plant response rating, Foxtail, Giant (giant foxtail; [12]): 90 | Plant response rating, Corn (corn; [13]): 0 | Corn plant response rating (0 to 100 scale, 0 is no effect, 100 is complete control) (corn; 500 g ai/ha): 50
